Tested on: glial progenitor cells derived from human ES cells (Olig2 positive cells)
Experiment: hOPC differentiation assay, Olig2 positive cells (immunostaining, high content screening)
Format: cell-based
Conditions: PDGF 20 ng/ml added during LDN-193189 dose-response assay, 21 days
Method: In order to initiate differentiation 20,000 GPCs were seeded in each well of Matrigel coated plates of 96 wells, or on PolyD-Lysine/laminin (PDL/lam)-coated 96 well plates. Cells were grown in GM media for two to three days. Then GM was replaced by differentiation medium without growth factors, (DMEM/F12, 1% B27, 0.5% N2, Vitamin C (Sigma, 50 ug/ml). Differentiation medium was supplemented with the following tested compounds: […] All media were replaced every other day. The oligodendrocyte lineage cells were characterized by the expression of a transcription factor olig2. The rabbit polyclonal AB anti olig2 (Millipore cat AB9610) was added to PFA fixed cells. […] The fixed cells were washed three times in blocking solution, olig2 diluted 1/500, in blocking solution, was added for 1 hour. The fixed cells were washed with PBS 3 times and goat anti rabbit Alexa Fluor 568 1/500 in PBS was added for 45 minutes. The fixed cells were washed three times. ArrayScan VTI HCS reader system (Cellomis, Thermo-scientific) was used for scanning at least 20 fields for each tested well under 10× objective in both assays (differentiation and myelination). Cellomics Neural profiling bio-application was used for processing and analyzing the images. For differentiation assay, the following parameters were tested: number and percentage of O4+ cells, number of processes, processes length and number of branching points. For myelination assay, the same morphological parameters were tested and in addition: areas of myelinated axons in pixels (MBP&NF overlap area) and Number of myelinated regions (MBP&NF overlap count) were also analyzed. Modifications in the Neuro-profiling bio-application were conducted for this specific purpose. T-test analysis was used to compare between treatments. The 4-parameter Hill-Slope curve fittings were generated by GraphPad Prism software using least squares fitting method and EC50 values were calculated. […] The cells at passage five were cultured for three days with GM on 96 well plates and after fixation, cells were reacted with anti-olig2 Ab, and olig2 positive cells and nuclei were scanned in the Thermo Scientific™ ArrayScan™ XTI High Content Analysis (HCA) Reader and counted with the neural profiling program. On the other hand the cells surface antigens O4 and PDGFRa were detected on dissociated cells after fixation and reaction with O4 Ab conjugated to APC, anti PDGFRa PE, as well as A2B5 PE all obtained from BD. Flow cytometry was conducted in BD FACS Canto II. […] Time points used for analysis are 21, 28, 35 and 42 days of differentiation, for each time point 20 fields were analyzed. […] In this experiment, cells at passage 4 were pretreated in differentiation medium with Noggin for 14 days, and split before seeding on 96 well plates.

**Q.** PDGF: human recombinant PDGFAA (R&D) was tested. Which “number of olig2 positive cells on addition of PDGF” value did it give?
**A.** Its value is “increases the number of olig2 positive cells about two folds”.

From US20170095512A1, “METHODS OF INDUCING MYELINATION AND MATURATION OF OLIGODENDROCYTES” (KADIMASTEM LTD., priority 2014, published 2017)
